Test results as given in the supplement of paper PMC5908809.

Legend:
KAI3 (IL-2 2.5 ng/mL) [1] = experiment: drug sensitivity score (DSS) (DSS units); higher = more sensitive; extreme values may be limits of the assay; conditions: 72 h
[2] = test system: normal primary NK cells, pool 1 (3 donors), resting (IL-2 0 ng/mL); experiment: as above; conditions: 72 h
[3] = test system: normal primary NK cells, pool 1 (3 donors) (IL-2 2.5 ng/mL); experiment: as above; conditions: 72 h
[4] = test system: normal primary NK cells, pool 2 (3 donors) (IL-2 2.5 ng/mL); experiment: as above; conditions: 72 h
IMC-1 (IL-2 20 ng/mL) [5] = experiment: as above; conditions: 72 h
[6] = test system: normal primary NK cells, pool 3 (3 donors) (IL-2 2.5 ng/mL); experiment: as above; conditions: 72 h
NK-YS (IL-2 2.5 ng/mL) [7] = experiment: as above; conditions: 72 h
YT (IL-2 2.5 ng/mL) [8] = experiment: as above; conditions: 72 h
NK-92 (IL-2 2.5 ng/mL) [9] = experiment: as above; conditions: 72 h
KHYG-1 (IL-2 2.5 ng/mL) [10] = experiment: as above; conditions: 72 h
NKL (IL-2 2.5 ng/mL) [11] = experiment: as above; conditions: 72 h
DERL-7 (IL-2 2.5 ng/mL) [12] = experiment: as above; conditions: 72 h
SNK-6 (IL-2 2.5 ng/mL) [13] = experiment: as above; conditions: 72 h
[14] = test system: normal NK cells expanded with K562-aAPC; experiment: as above; conditions: 72 h; IL-2 2.5 ng/mL
Method: (§1)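 Drug sensitivity and resistance testing on K562-aAPC-expanded normal NK cells: 5 concentrations (10-fold steps over a 10,000-fold range), 72 h at 37 °C, viability by CellTiter-Glo normalised to DMSO and benzethonium chloride controls; DSS from the fitted curve.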

KAI3 (IL-2 2.5 ng/mL) [15] = experiment: percent inhibition of viability; higher = more inhibition; conditions: 72 h
[16] = test system: normal primary NK cells, pool 1 (3 donors), resting (IL-2 0 ng/mL); experiment: as above; conditions: 72 h
[17] = test system: normal primary NK cells, pool 1 (3 donors) (IL-2 2.5 ng/mL); experiment: as above; conditions: 72 h
[18] = test system: normal primary NK cells, pool 2 (3 donors) (IL-2 2.5 ng/mL); experiment: as above; conditions: 72 h
IMC-1 (IL-2 20 ng/mL) [19] = experiment: as above; conditions: 72 h
[20] = test system: normal primary NK cells, pool 3 (3 donors) (IL-2 2.5 ng/mL); experiment: as above; conditions: 72 h
NK-YS (IL-2 2.5 ng/mL) [21] = experiment: as above; conditions: 72 h
YT (IL-2 2.5 ng/mL) [22] = experiment: as above; conditions: 72 h
NK-92 (IL-2 2.5 ng/mL) [23] = experiment: as above; conditions: 72 h
KHYG-1 (IL-2 2.5 ng/mL) [24] = experiment: as above; conditions: 72 h
NKL (IL-2 2.5 ng/mL) [25] = experiment: as above; conditions: 72 h
DERL-7 (IL-2 2.5 ng/mL) [26] = experiment: as above; conditions: 72 h
SNK-6 (IL-2 2.5 ng/mL) [27] = experiment: as above; conditions: 72 h
[28] = test system: normal NK cells expanded with K562-aAPC; experiment: as above; conditions: 72 h, IL-2 2.5 ng/mL
Method: as §1

O=C(Nc1ccc2[nH]nc(-c3ccncc3)c2c1)[C@@H]1CCN(CC(=O)N2CCN(c3ccc(-c4ncccn4)cc3)CC2)C1 (max concentration tested 10000 nM)
Conditions	drug sensitivity score
DERL-7 (IL-2 2.5 ng/mL) [12]	10.3
IMC-1 (IL-2 20 ng/mL) [5]	0
KAI3 (IL-2 2.5 ng/mL) [1]	5.52
KHYG-1 (IL-2 2.5 ng/mL) [10]	9.89
NK-92 (IL-2 2.5 ng/mL) [9]	0.01
NK-YS (IL-2 2.5 ng/mL) [7]	3.58
NKL (IL-2 2.5 ng/mL) [11]	10.9
SNK-6 (IL-2 2.5 ng/mL) [13]	0.08
YT (IL-2 2.5 ng/mL) [8]	1.87
[2]	5.24
[3]	4.28
[4]	0.76
[6]	0.32
[14]	1.01

percent inhibition of viability [%]
Conditions	1 nM	10 nM	100 nM	1000 nM	10000 nM
DERL-7 (IL-2 2.5 ng/mL) [26]	-1.39	5.53	18	42.9	66.6
IMC-1 (IL-2 20 ng/mL) [19]	-5.11	-10.7	-8.77	-10.1	-4.64
KAI3 (IL-2 2.5 ng/mL) [15]	-4.48	5.51	14.6	21	46.9
KHYG-1 (IL-2 2.5 ng/mL) [24]	-2.48	-2.2	5.59	45.6	78.9
NK-92 (IL-2 2.5 ng/mL) [23]	-6.06	-9.07	-16.6	-32.5	12.5
NK-YS (IL-2 2.5 ng/mL) [21]	-4.51	-0.3	-0.1	9.9	40.6
NKL (IL-2 2.5 ng/mL) [25]	-19.4	-14.6	3.59	55.7	71.8
SNK-6 (IL-2 2.5 ng/mL) [27]	-4.99	4.31	5.1	-34.4	15.8
YT (IL-2 2.5 ng/mL) [22]	-0.05	-0.51	-3.3	9.81	22.2
[16]	4.46	-7.38	-1.31	12.8	58.7
[17]	-5.21	-6.91	-5.12	11.2	47.8
[18]	-6.14	-5.45	0.32	5.74	15.6
[20]	-13.2	-18.2	-22.8	-10.8	20
[28]	2.7	-4.22	-5.95	2.93	20.3

CCN1CCN(Cc2ccc(-c3cc4c(N[C@H](C)c5ccccc5)ncnc4[nH]3)cc2)CC1 [NVP-AEE788] (max concentration tested 2500 nM)
Conditions	drug sensitivity score
DERL-7 (IL-2 2.5 ng/mL) [12]	1.24
IMC-1 (IL-2 20 ng/mL) [5]	0
KAI3 (IL-2 2.5 ng/mL) [1]	1.9
KHYG-1 (IL-2 2.5 ng/mL) [10]	0.75
NK-92 (IL-2 2.5 ng/mL) [9]	4.8
NK-YS (IL-2 2.5 ng/mL) [7]	0.35
NKL (IL-2 2.5 ng/mL) [11]	4.63
SNK-6 (IL-2 2.5 ng/mL) [13]	0
YT (IL-2 2.5 ng/mL) [8]	2.2
[2]	0.04
[3]	0
[4]	0
[6]	0
[14]	1.88

percent inhibition of viability [%]
Conditions	0.25 nM	2.5 nM	25 nM	250 nM	2500 nM
DERL-7 (IL-2 2.5 ng/mL) [26]	-0.87	0.92	1.23	5.24	19.9
IMC-1 (IL-2 20 ng/mL) [19]	-8.78	-2.35	1.14	-4.8	5.2
KAI3 (IL-2 2.5 ng/mL) [15]	-3.14	-7.58	-0.99	5.51	26.6
KHYG-1 (IL-2 2.5 ng/mL) [24]	-7.12	-8.65	-3.24	-0.41	22.7
NK-92 (IL-2 2.5 ng/mL) [23]	-16	-4.1	-2.66	13.6	51
NK-YS (IL-2 2.5 ng/mL) [21]	-8.61	-8.85	-3.03	-1.23	17.7
NKL (IL-2 2.5 ng/mL) [25]	-2.78	3.21	7.84	20	48.2
SNK-6 (IL-2 2.5 ng/mL) [27]	-12.2	-14.1	-23.9	-6.92	9.17
YT (IL-2 2.5 ng/mL) [22]	-6.59	-5.53	-3.48	7.61	27.4
[16]	-1.29	14.4	9.7	11.1	5.88
[17]	4.7	13.8	6.81	9.36	16.1
[18]	-10.9	9.29	3.66	5.84	2.8
[20]	-4.61	9.35	9.18	5.89	-1.16
[28]	-8.59	-5.81	-0.99	4.64	27.8
